This is an account of results in patent US20220257774A1, “AROMATIC AMINE AR AHD BET TARGETING PROTEIN DEGRADATION CHIMERA COMPOUND AND USE” (HINOVA PHARMACEUTICALS INC., priority 2019, published 2022).

Molecules are shown by their SMILES. Read-outs that look alike come from different tables or passages of the source.

Holding throughout (assay type): cell-based
Assay [1] has as its system 22RV1 cells. The assay is described as follows: Inhibition of the proliferation of drug-resistant prostate cancer cell 22RV1 (CCK-8). To be noted: 22RV1 cells (enzalutamide-resistant), same method. The gist of the method:
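22RV1 cells, 1000/well in RPMI1640 with 10% FBS, treated in duplicate with 9-point 3-fold dilutions from 10 μM (0.1% DMSO final). After 6 days at 37 °C, CCK-8 added for 1 h and OD450 read. IC50 from dose-response inhibition fit.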

Assay [2] deals with T1, BRD4 (Homo sapiens, UniProt O60885).
T1 construct: CWR22RV1 cells were subcultured in cell culture media; endogenous in cells; host or cells: CWR22RV1 cells
The assay is described as follows: Down-regulation/degradation of BRD4 determined by Western blot in CWR22RV1 cells. The settings on record: concentration 100 nM, 24 h. On the procedure:
(§1) The Down-Regulation on the Protein Expression of Androgen Receptors AR and Brd4 Determined by Western Blot CWR22RV1 cells (National Collection of Authenticated Cell Cultures. TCHu100) FBS (Gibco, Cat. No. 10099-141) 0.01M PBS (Biosharp. Cat. No. 162262) RIPM1640 (Hyclone, Cat. No. 308090.01) Penicillin-Streptomycin (Hyclone. Cat. No. SV30010) DMSO (Sigma. Cat. No. D5879) Centrifuge tube, 15 ml (Excell Bio. Cat. No. CS015-0001) Cell culture plate (Excell Bio. Cat. No. CS016-0128) 6-well cell culture cluster (Corning, Cat. No. 3516) RIPA lysate buffer (Beyotime, Cat. No. P0013B) Protein loading buffer (Beyotime, Cat. No. P0015L) CA protein assay kit (Beyotime, Cat. No. P0012) SDS-PAGE gel preparation kit (Chengdu Baihe Technology Co., Ltd. Cat. No. PG112) Anti-β-tubulin mouse mAb (Zen Bioscience, Cat. No. 200608) Androgen Receptor ([…]) XP Rabbit mAb (CST. Cat. No. 5153) Anti-cMyc(D3N8F) Rabbit mAb (CST. Cat. No. 13987) Anti-BRD4(E2A7X) rabbit mAb (CST, Cat. No. 13440) Peroxidase Affinipure(HRP) Goat Anti-Mouse IgG (Zen Bioscience, Cat. No. 511103) Peroxidase Affinipure(HRP) Goat Anti-Rabbit IgG (Zen Bioscience, Cat. No. 511203) TBST (Biosharp. Cat. No. B[…]) ECL chemiluminescence kit (Beyotime, Cat. No. […]1 cells were subcultured in cell culture media, and then the cells in good growth condition were seeded in a 6-well plate at 2 ml/well (1×10^6 cells/well), and cultured overnight in a 37° C., 5% CO2 cell incubator. 2) The drug was prepared as a 10 mM stock solution with dimethyl sulfoxide (DMSO). […] The plate was gently tapped to thoroughly mix. In addition, the experiment included negative control wells (containing equal amount of DMSO) and positive control wells. 3) After culturing 24 hi, the cells were lysed with RIPA cell lysate, and the protein was extracted. […] The first antibody (Androgen Receptor ([…]) XP Rabbit mAb. Anti-cMyc(D3N8F) Rabbit mAb, Anti-BRD4(E2A7X) rabbit mAb and Anti-β-Tubulin Mouse mAb) was added and incubated overnight at 4° C. The membrane was rinsed with TBST solution three times, 10 min for each time. The secondary antibody (horseradish peroxidase labeled goat anti mouse IgG) was added and incubated at room temperature for 2 h, and then the membrane was washed with TBST solution three times, 10 m for each time. Finally. ECL chemiluminescence solution was added, and then photos were taken with automatic chemiluminescence instrument to collect pictures for analysis.

For assay [3], the system named is LNCaP/AR cells. The assay is described as follows: Inhibition of the proliferation of LNCap/AR cells (CCK-8). To be noted: LNCaP/AR cells, 6 days culture, CCK-8, read-out: LNCap/AR IC50. An outline of the steps:
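LNCaP/AR cells (1000/well, RPMI1640 + 10% FBS) were treated for 6 days at 37 °C with 9-point 3-fold dilutions from 10 μM final, 0.1% DMSO, in duplicate. Viability was read by CCK-8 absorbance at 450 nm after 1 h, and IC50 came from a dose-response-inhibition fit.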

For assay [4], the system named is Androgen receptor (AR). The assay is described as follows: Down-regulation/degradation of AR determined by Western blot in CWR22RV1 cells. The settings on record: concentration 100 nM, 24 h. On the procedure: as §1
On the technique in general: A western blot detects proteins with antibodies after separation by electrophoresis.

In the case of `Cc1ccc(-c2c(C)noc2C)cc1N(CCCOC1CN(c2cc3c(cc2F)C(=O)N(C2CCC(=O)NC2=O)C3=O)C1)c1ccc(C2(C#N)CC2)cc1` (stereo not shown) [Compound 120, 1-(4-((5-(3,5-dimethylisoxazol-4-yl)-2-methylphenyl)(3-((1-(2-(2,6-dioxopiperidin-3-yl)-6-fluoro-1,3-dioxoisoindol-5-yl)azetidin-3-yl)oxy)propyl)amino)phenyl)cyclopropane-1-carbonitrile], the IC50 in assay [1] (Homo sapiens) is under 100 nM; in assay [3] (144 h), 101 to 500 nM. Moreover, the “BRD4 (% degradation)” value in assay [2] is on record as “B (79%-50% of the target protein was degraded)”. The “AR (% degradation)” value in assay [4] is recorded as “D (<20% of the target protein was degraded)”.
Turning to `Cc1ccc(-c2c(C)noc2C)cc1N(CCCOC1CN(c2cc3c(cc2F)CN(C2CCC(=O)NC2=O)C3=O)C1)c1ccc(C2(C#N)CC2)cc1` (stereo not shown) [Compound 123, 1-(4-((5-(3,5-dimethylisoxazol-4-yl)-2-methylphenyl)(3-((1-(2-(2,6-dioxopiperidin-3-yl)-6-fluoro-3-oxoisoindolin-5-yl)azetidin-3-yl)oxy)propyl)amino)phenyl)cyclopropane-1-nitrile], the IC50 in assay [1] (Homo sapiens) and in assay [3] (144 h) was 501 to 2000 nM throughout. In addition, the “BRD4 (% degradation)” value in assay [2] is given as “C (49%-20% of the target protein was degraded)”. The “AR (% degradation)” value in assay [4] is reported as “D (<20% of the target protein was degraded)”.
`Cc1ccc(-c2c(C)noc2C)cc1N(CCCOC1CN(c2cc3c(cc2F)C(=O)N(C2CCC(=O)NC2=O)C3)C1)c1ccc(C2(C#N)CC2)cc1` (stereo not shown) [Compound 124, 1-(4-((5-(3,5-dimethylisoxazol-4-yl)-2-methylphenyl)(3-((1-(2-(2,6-dioxopiperidin-3-yl)-6-fluoro-1-oxoisoindolin-5-yl)azetidin-3-yl)oxy)propyl)amino)phenyl)cyclopropane-1-nitrile]: the values for the IC50 in assay [1] (Homo sapiens) and in assay [3] (144 h) were under 100 nM and 101 to 500 nM, respectively. For the same compound, the “BRD4 (% degradation)” value in assay [2] is “B (79%-50% of the target protein was degraded)”. Besides, in assay [4], the “AR (% degradation)” value is reported as “B (79%-50% of the target protein was degraded)”.
With `Cc1ccc(-c2c(C)noc2C)cc1N(CC1CCN(c2cc3c(cc2F)CN(C2CCC(=O)NC2=O)C3=O)CC1)c1ccc(C2(C#N)CC2)cc1` (stereo not shown) [Compound 127, 1-(4-((5-(3,5-dimethylisoxazol-4-yl)-2-methylphenyl)((1-(2-(2,6-dioxopiperidin-3-yl)-6-fluoro-3-oxoisoindolin-5-yl)piperidin-4-yl)methyl)amino)phenyl)cyclopropane-1-nitrile], the IC50 in assay [1] (Homo sapiens) and in assay [3] (144 h) was 101 to 500 nM each time. In addition, the “BRD4 (% degradation)” value in assay [2] was “B (79%-50% of the target protein was degraded)”. Further, the “AR (% degradation)” value in assay [4] is on record as “D (<20% of the target protein was degraded)”.
Regarding `Cc1ccc(-c2c(C)noc2C)cc1N(CC1CCN(c2cc3c(cc2F)C(=O)N(C2CCC(=O)NC2=O)C3)CC1)c1ccc(C2(C#N)CC2)cc1` (stereo not shown) [Compound 128, 1-(4-((5-(3,5-dimethylisoxazol-4-yl)-2-methylphenyl)((1-(2-(2,6-dioxopiperidin-3-yl)-6-fluoro-1-oxoisoindolin-5-yl)piperidin-4-yl)methyl)amino)phenyl)cyclopropane-1-nitrile], the IC50 in assay [1] (Homo sapiens) was in the range of 101 to 500 nM; in assay [3] (144 h), 501 to 2000 nM. In assay [2], the “BRD4 (% degradation)” value is reported as “C (49%-20% of the target protein was degraded)”. Besides, the “AR (% degradation)” value in assay [4] was “D (<20% of the target protein was degraded)”.
The corresponding values for `Cc1ccc(-c2c(C)noc2C)cc1N(CCC1CN(c2cc3c(cc2F)C(=O)N(C2CCC(=O)NC2=O)C3=O)C1)c1ccc(C2(C#N)CC2)cc1` (stereo not shown) [Compound 129, 1-(4-((5-(3,5-Dimethylisoxazol-4-yl)-2-methylphenyl)(2-(1-(2-(2,6-dioxopiperidin-3-yl)-6-fluoro-1,3-dioxoisoindolin-5-yl)azetidin-3-yl)ethyl)amino)phenyl)cyclopropane-1-carbonitrile] are under 100 nM, 101 to 500 nM, “B (79%-50% of the target protein was degraded)” and “C (49%-20% of the target protein was degraded)”.
`Cc1ccc(-c2c(C)noc2C)cc1N(C[C@H]1CC[C@H](CNc2cc3c(cc2F)C(=O)N(C2CCC(=O)NC2=O)C3=O)CC1)c1ccc(C#N)c(Cl)c1` (stereo partly shown) [Compound 131]: the IC50 in assay [1] and in assay [3] was under 100 nM throughout. For the same compound, the “BRD4 (% degradation)” value in assay [2] was “A (>80% of the target protein was degraded)”. For the same compound, the “AR (% degradation)” value in assay [4] is given as “C (49%-20% of the target protein was degraded)”.
Turning to `Cc1ccc(-c2c(C)noc2C)cc1N(C[C@H]1CC[C@H](CNc2cc3c(cc2F)C(=O)N(C2CCC(=O)NC2=O)C3)CC1)c1ccc(C#N)c(Cl)c1` (stereo partly shown) [Compound 135], the IC50 in assay [1] and in assay [3] was under 100 nM each time. Besides, the “BRD4 (% degradation)” value in assay [2] was “A (>80% of the target protein was degraded)”. Moreover, in assay [4], the “AR (% degradation)” value is “C (49%-20% of the target protein was degraded)”.
On to `Cc1ccc(-c2c(C)noc2C)cc1N(CC1(COC2CN(c3ccc4c(c3)C(=O)N(C3CCC(=O)NC3=O)C4=O)C2)CC1)c1ccc(C2(C#N)CC2)cc1` (stereo not shown) [Compound 137, 1-(4-((5-(3,5-Dimethylisoxazol-4-yl)-2-methylphenyl)((1-(((1-(2-(2,6-dioxopiperidin-3-yl)-1,3-dioxoisoindolin-5-yl)azetidin-3-yl)oxy)methyl)cyclopropyl)methyl)amino)phenyl)cyclopropane-1-nitrile], for which the IC50 in assay [1] (Homo sapiens) and in assay [3] (144 h) was over 2000 nM in each case. In addition, the “BRD4 (% degradation)” value in assay [2] is recorded as “B (79%-50% of the target protein was degraded)”. Besides, the “AR (% degradation)” value in assay [4] is recorded as “C (49%-20% of the target protein was degraded)”.
As for `Cc1ccc(-c2c(C)noc2C)cc1N(CCCOC1(C)CN(c2ccc3c(c2)C(=O)N(C2CCC(=O)NC2=O)C3=O)C1)c1ccc(C2(C#N)CC2)cc1` (stereo not shown) [Compound 140], the IC50 was in the range of 101 to 500 nM in assay [1] (Homo sapiens) and 501 to 2000 nM in assay [3] (144 h). For the same compound, in assay [2], the “BRD4 (% degradation)” value is given as “C (49%-20% of the target protein was degraded)”. Also, in assay [4], the “AR (% degradation)” value was “D (<20% of the target protein was degraded)”.
For the compound `Cc1ccc(-c2c(C)noc2C)cc1N(C[C@H]1CC[C@H](CNc2ccc3c(c2)C(=O)N(C2CCC(=O)NC2=O)C3=O)CC1)c1ccc(C2(C#N)CC2)cc1` (stereo partly shown) [Compound 149], the IC50 in assay [1] (Homo sapiens) and in assay [3] (144 h) was under 100 nM each time. Besides, the “BRD4 (% degradation)” value in assay [2] is “A (>80% of the target protein was degraded)”. Also, the “AR (% degradation)” value in assay [4] was “A (>80% of the target protein was degraded)”.
Turning to `Cc1ccc(-c2c(C)noc2C)cc1N(CC1CN(C2CN(c3cc4c(cc3F)C(=O)N(C3CCC(=O)NC3=O)C4)C2)C1)c1ccc(C2(C#N)CC2)cc1` (stereo not shown) [Compound 157], the IC50 in assay [1] (Homo sapiens) and in assay [3] (144 h) was under 100 nM each time. In addition, the “BRD4 (% degradation)” value in assay [2] is “A (>80% of the target protein was degraded)”. Also, the “AR (% degradation)” value in assay [4] is on record as “B (79%-50% of the target protein was degraded)”.
In the case of `Cc1ccc(-c2c(C)noc2C)cc1N(CC1CCN(C2CN(c3cc4c(cc3F)CN(C3CCC(=O)NC3=O)C4=O)C2)CC1)c1ccc(C2(C#N)CC2)cc1` (stereo not shown) [Compound 159], the IC50 in assay [1] (Homo sapiens) and in assay [3] (144 h) was under 100 nM in each case. In assay [2], the “BRD4 (% degradation)” value is “B (79%-50% of the target protein was degraded)”. For the same compound, the “AR (% degradation)” value in assay [4] is listed as “C (49%-20% of the target protein was degraded)”.
